Source: publication PMC5513444, “The synthesis and evaluation of triazolopyrimidines as anti-tubercular agents” (Bioorganic & Medicinal Chemistry, 2017)
In brackets after ≈: the same amount, converted by molar mass.

Assays:
[1] = tested on: M. tuberculosis H37Rv; experiment: MIC90 against M. tuberculosis in liquid medium; assay type: cell-based, Mycobacterium tuberculosis; details: Mycobacterium tuberculosis, H37RV, 120 h; liquid medium 7H9-Tw-OADC, aerobic, 5 days; average ± SD of two independent experiments; read-out: MIC (MIC90, minimum concentration required to inhibit growth of M. tuberculosis by 90%)
[2] = tested on: HepG2 cells; experiment: Cytotoxicity against HepG2 cell line (CellTiter-Glo); assay type: cell-based; details: for Selectivity index (SI) = IC50/MIC90: HepG2 IC50 / M. tuberculosis MIC90; for IC50: Homo sapiens, 48 h, HepG2, 2 days incubation, read-out: IC50 (concentration required to reduce the viability of HepG2 cells by 50%)

FC(F)(F)c1ccc(CCNc2cc(-c3ccccc3)nc3ncnn23)cc1 [Compound 47, 5-Phenyl-N-(4-(trifluoromethyl)phenethyl)-[1,2,4]triazolo[1,5-a]pyrimidin-7-amine]
MIC90 [1]: 2.7 ± 0.7 µM (≈ 1.04 µg/mL) | Selectivity index (SI) = IC50/MIC90 [2]: >38 | IC50 [2]: > 100 µM | melting point: 183 to 184 °C

COc1ccc(CCNc2cc(Cc3ccccc3)nc3ncnn23)cc1 [Compound 19, 5-Benzyl-N-(4-methoxyphenethyl)-[1,2,4]triazolo[1,5-a]pyrimidin-7-amine]
MIC90 [1]: > 20 µM | IC50 [2]: 57 µM | melting point: 119 to 121 °C

c1ccc(-c2cc(NCCc3ccncc3)n3ncnc3n2)nc1 [Compound 54, 5-(Pyridin-2-yl)-N-(2-(pyridin-4-yl)ethyl)-[1,2,4]triazolo[1,5-a]pyrimidin-7-amine]
MIC90 [1]: > 20 µM | IC50 [2]: > 100 µM | melting point: 201 to 202 °C

COc1ccc(CCNc2cc(-c3ccccn3)nc3nccn23)cc1 [Compound 70, N-(4-Methoxyphenethyl)-7-(pyridin-2-yl)imidazo[1,2-a]pyrimidin-5-amine]
MIC90 [1]: 0.22 ± 0.07 µM (≈ 0.076 µg/mL) | Selectivity index (SI) = IC50/MIC90 [2]: 142 | IC50 [2]: 30 µM | melting point: 234 to 235 °C

COc1ccc(CCNc2cc(-c3cccnc3)nc3ncnn23)cc1 [Compound 17, N-(4-Methoxyphenethyl)-5-(pyridin-3-yl)-[1,2,4]triazolo[1,5-a]pyrimidin-7-amine]
MIC90 [1]: > 20 µM | IC50 [2]: > 100 µM | melting point: 152 to 153 °C

Nc1cc(-c2ccccc2)nc2ncnn12 [Compound 28, 5-Phenyl-[1,2,4]triazolo[1,5-a]pyrimidin-7-amine]
MIC90 [1]: > 20 µM | IC50 [2]: > 20 µM | melting point: 302 to 304 °C

Fc1ccc(CCNc2cc(-c3ccccn3)nc3ncnn23)cc1 [Compound 57, N-(4-Fluorophenethyl)-5-(pyridin-2-yl)-[1,2,4]triazolo[1,5-a]pyrimidin-7-amine]
MIC90 [1]: 4.8 ± 1.3 µM (≈ 1.6 µg/mL) | Selectivity index (SI) = IC50/MIC90 [2]: 17 | IC50 [2]: 81 µM | melting point: 190 to 192 °C

c1ccc(-c2cc(NCCC3CCCCC3)n3ncnc3n2)cc1 [Compound 36, N-(2-Cyclohexylethyl)-5-phenyl-[1,2,4]triazolo[1,5-a]pyrimidin-7-amine]
MIC90 [1]: 17 ± 2.1 µM (≈ 5.46 µg/mL) | Selectivity index (SI) = IC50/MIC90 [2]: >6 | IC50 [2]: > 100 µM | melting point: 168 to 169 °C

CCCCNc1cc(-c2ccccc2)nc2ncnn12 [Compound 32, N-Butyl-5-phenyl-[1,2,4]triazolo[1,5-a]pyrimidin-7-amine]
MIC90 [1]: > 20 µM | IC50 [2]: 98 µM | melting point: 125 to 126 °C

COCCNc1cc(-c2ccccc2)nc2ncnn12 [Compound 33, N-(2-Methoxyethyl)-5-phenyl-[1,2,4]triazolo[1,5-a]pyrimidin-7-amine]
MIC90 [1]: > 20 µM | IC50 [2]: > 100 µM | melting point: 116 to 118 °C

c1ccc(CCNc2cc(-c3ccccn3)nc3ncnn23)nc1 [Compound 52, 5-(Pyridin-2-yl)-N-(2-(pyridin-2-yl)ethyl)-[1,2,4]triazolo[1,5-a]pyrimidin-7-amine]
MIC90 [1]: > 20 µM | IC50 [2]: > 100 µM | melting point: 156 to 157 °C

c1ccc(-c2cc(NC3CCC3)n3ncnc3n2)cc1 [Compound 35, N-Cyclobutyl-5-phenyl-[1,2,4]triazolo[1,5-a]pyrimidin-7-amine]
MIC90 [1]: > 20 µM | IC50 [2]: 57 µM | melting point: 193 to 194 °C

c1ccc(CCNc2cc(-c3ccccc3)nc3ncnn23)cc1 [Compound 39, N-Phenethyl-5-phenyl-[1,2,4]triazolo[1,5-a]pyrimidin-7-amine]
MIC90 [1]: 7.7 ± 0.7 µM (≈ 2.43 µg/mL) | Selectivity index (SI) = IC50/MIC90 [2]: 3.5 | IC50 [2]: 27 µM | melting point: 164 to 165 °C

c1ccc(-c2cc(NCCc3ccccn3)n3ncnc3n2)cc1 [Compound 41, 5-Phenyl-N-(2-(pyridin-2-yl)ethyl)-[1,2,4]triazolo[1,5-a]pyrimidin-7-amine]
MIC90 [1]: > 20 µM | IC50 [2]: > 100 µM | melting point: 111 to 114 °C

Cc1ccc(CCNc2cc(-c3ccccn3)nc3ncnn23)cc1 [Compound 55, N-(4-Methylphenethyl)-5-(pyridin-2-yl)-[1,2,4]triazolo[1,5-a]pyrimidin-7-amine]
MIC90 [1]: 0.52 ± 0.1 µM (≈ 0.172 µg/mL) | Selectivity index (SI) = IC50/MIC90 [2]: >196 | IC50 [2]: > 100 µM | melting point: 194 to 196 °C

CNc1cc(-c2ccccc2)nc2ncnn12 [Compound 29, N-Methyl-5-phenyl-[1,2,4]triazolo[1,5-a]pyrimidin-7-amine]
MIC90 [1]: > 20 µM | IC50 [2]: > 20 µM | melting point: 200 to 202 °C

COc1ccc(CCNc2cc(-c3ccccn3)nc3ccnn23)cc1 [Compound 69, N-(4-Methoxyphenethyl)-5-(pyridin-2-yl)pyrazolo[1,5-a]pyrimidin-7-amine]
MIC90 [1]: 2.5 ± 0.15 µM (≈ 0.864 µg/mL) | Selectivity index (SI) = IC50/MIC90 [2]: 9 | IC50 [2]: 23 µM | melting point: 116 to 117 °C

CCc1ccc(CCNc2cc(-c3ccccn3)nc3ncnn23)cc1 [Compound 56, N-(4-Ethylphenethyl)-5-(pyridin-2-yl)-[1,2,4]triazolo[1,5-a]pyrimidin-7-amine]
MIC90 [1]: 0.2 ± 0.02 µM (≈ 0.0689 µg/mL) | Selectivity index (SI) = IC50/MIC90 [2]: 220 | IC50 [2]: 44 µM | melting point: 154 to 155 °C

c1ccc(-c2ccn3ncnc3n2)cc1 [Compound 27, 5-Phenyl-[1,2,4]triazolo[1,5-a]pyrimidine]
MIC90 [1]: > 20 µM | IC50 [2]: > 20 µM | melting point: 179 to 181 °C

COc1ccc(CCNc2cc(-c3ccc(C(F)(F)F)cc3)nc3ncnn23)cc1 [Compound 15, N-(4-Methoxyphenethyl)-5-(4-(trifluoromethyl)phenyl)-[1,2,4]triazolo[1,5-a]pyrimidin-7-amine]
MIC90 [1]: > 20 µM | IC50 [2]: > 100 µM | melting point: 191 to 193 °C

COc1ccc(CCNc2cc(C3CCC3)nc3ncnn23)cc1 [Compound 23, 5-Cyclobutyl-N-(4-methoxyphenethyl)-[1,2,4]triazolo[1,5-a]pyrimidin-7-amine]
MIC90 [1]: 2.9 ± 0.71 µM (≈ 0.938 µg/mL) | Selectivity index (SI) = IC50/MIC90 [2]: >34 | IC50 [2]: > 100 µM | melting point: 99 to 100 °C

COc1ccc(CCN(C)c2cc(-c3ccccc3)nc3ncnn23)cc1 [Compound 61, N-(4-Methoxyphenethyl)-N-methyl-5-phenyl-[1,2,4]triazolo[1,5-a]pyrimidin-7-amine]
MIC90 [1]: > 20 µM | IC50 [2]: 17 µM | melting point: 170 to 171 °C

c1ccc(CCCNc2cc(-c3ccccc3)nc3ncnn23)cc1 [Compound 40, 5-Phenyl-N-(3-phenylpropyl)-[1,2,4]triazolo[1,5-a]pyrimidin-7-amine]
MIC90 [1]: > 20 µM | IC50 [2]: 8.7 µM | melting point: 143 to 145 °C

c1ccc(-c2cc(NC3CC3)n3ncnc3n2)cc1 [Compound 34, N-Cyclopropyl-5-phenyl-[1,2,4]triazolo[1,5-a]pyrimidin-7-amine]
MIC90 [1]: > 20 µM | IC50 [2]: > 100 µM | melting point: 193 to 195 °C

c1ccc(CCNc2cc(-c3ccccn3)nc3ncnn23)cc1 [Compound 51, N-Phenethyl-5-(pyridin-2-yl)-[1,2,4]triazolo[1,5-a]pyrimidin-7-amine]
MIC90 [1]: 2.4 ± 1.3 µM (≈ 0.759 µg/mL) | Selectivity index (SI) = IC50/MIC90 [2]: >46 | IC50 [2]: > 100 µM | melting point: 214 to 215 °C
